Values of other authors in US20070231312A1, “NUTRITIONAL SUPPLEMENT FOR PREGNANT FEMALES” (priority 2006, published 2007).

Experiments:
[1] = test system: women at high risk for developing preeclampsia; conditions: treatment group; 1000 μg. per day for 6 to 8 weeks during late gestation; placebo 22.7%
[2] = supplementation in pregnancy
primigravida women = conditions: 2 mg. twice daily beginning at 16-20 wks; placebo 17.7%, P<0.05
glutathione peroxidase = conditions: placental homogenates from late human gestation
[3] = test system: oxidative mitochondrial damage; conditions: in vitro studies, ischemia reperfusion model

## COC(=O)[C@@H](N)CCCNC(=N)N[N+](=O)[O-] [L-NAME, N^G-nitro-L-arginine methyl ester]
Pregnant rats
  effects on blood pressure, fetal growth and proteinuria: elevated blood pressure, fetal retarded growth and proteinuria

## [Se] [Selenium]
[1]
  incidence of pregnancy-induced hypertension: 7.7%

## CC1=C(/C=C/C(C)=C/C=C/C(C)=C/C=C/C=C(C)/C=C/C=C(C)/C=C/C2=C(C)CCCC2(C)C)C(C)(C)CCC1 [beta-carotene]
[2]
  level in maternal serum: increase

## CC(C)=CCC/C(C)=C/C=C/C(C)=C/C=C/C(C)=C/C=C/C=C(C)/C=C/C=C(C)/C=C/C=C(\C)CCC=C(C)C [lycopene, Lycopene]
Primigravida women
  women developing preeclampsia: 8.6%

## COc1ccc2[nH]cc(CCNC(C)=O)c2c1 [melatonin, Melatonin]
Glutathione peroxidase
  glutathione peroxidase activity: reduction
[3]
  protection against oxidative mitochondrial damage: protects against oxidative mitochondrial damage
